Measured values taken from US20250026721A1, “COMPOUNDS AND METHODS FOR MODULATING RAS-PI3K” (Vividion Therapeutics, Inc., priority 2023, published 2025).

Tests used:
[1] = biological target: T1, PIK3CA (Homo sapiens, UniProt P42336); experiment: In vitro ELISA target engagement assay for PIK3CA in Jurkat cellular lysate (competition with PIK3CA Biotin Probe); type: binding; details: 1 hour at rt, then 500 nM PIK3CA Biotin Probe, read-out: Elisa Target Engagement Assay (TE50)
T1 construct: endogenous in cells; host or cells: Jurkat cell lysate
How it was run: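 Competition format in Jurkat lysate: compound (serial dilutions, top 200 μM) for 1 h at rt, then 500 nM final biotinylated PIK3CA probe for 1 h at rt. Sandwich ELISA with capture antibody and Neutravidin-HRP luminescence read-out measured probe-labelled PIK3CA, giving TE50.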

[2] = biological target: T2, PIK3CA_C242 (Homo sapiens, UniProt P42336); experiment: Proteomic TE50 (IA-DTB / TMT mass spectrometry) in Jurkat cell lysate; type: binding; details: 1 hour at rt, 7-point dose response
T2 construct: endogenous in cells; host or cells: Jurkat cell lysate
How it was run: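 Cysteine engagement was read by targeted TMT MS3 of the IA-DTB-labelled, streptavidin-enriched C242 tryptic peptide. Beforehand, Jurkat lysate was exposed to a 7-point 1:5 compound series for 1 h at rt, then to 200 μM IA-DTB for 1 h. Reporter S/N curves gave TE50.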

T1 sequence (P42336 whole entry): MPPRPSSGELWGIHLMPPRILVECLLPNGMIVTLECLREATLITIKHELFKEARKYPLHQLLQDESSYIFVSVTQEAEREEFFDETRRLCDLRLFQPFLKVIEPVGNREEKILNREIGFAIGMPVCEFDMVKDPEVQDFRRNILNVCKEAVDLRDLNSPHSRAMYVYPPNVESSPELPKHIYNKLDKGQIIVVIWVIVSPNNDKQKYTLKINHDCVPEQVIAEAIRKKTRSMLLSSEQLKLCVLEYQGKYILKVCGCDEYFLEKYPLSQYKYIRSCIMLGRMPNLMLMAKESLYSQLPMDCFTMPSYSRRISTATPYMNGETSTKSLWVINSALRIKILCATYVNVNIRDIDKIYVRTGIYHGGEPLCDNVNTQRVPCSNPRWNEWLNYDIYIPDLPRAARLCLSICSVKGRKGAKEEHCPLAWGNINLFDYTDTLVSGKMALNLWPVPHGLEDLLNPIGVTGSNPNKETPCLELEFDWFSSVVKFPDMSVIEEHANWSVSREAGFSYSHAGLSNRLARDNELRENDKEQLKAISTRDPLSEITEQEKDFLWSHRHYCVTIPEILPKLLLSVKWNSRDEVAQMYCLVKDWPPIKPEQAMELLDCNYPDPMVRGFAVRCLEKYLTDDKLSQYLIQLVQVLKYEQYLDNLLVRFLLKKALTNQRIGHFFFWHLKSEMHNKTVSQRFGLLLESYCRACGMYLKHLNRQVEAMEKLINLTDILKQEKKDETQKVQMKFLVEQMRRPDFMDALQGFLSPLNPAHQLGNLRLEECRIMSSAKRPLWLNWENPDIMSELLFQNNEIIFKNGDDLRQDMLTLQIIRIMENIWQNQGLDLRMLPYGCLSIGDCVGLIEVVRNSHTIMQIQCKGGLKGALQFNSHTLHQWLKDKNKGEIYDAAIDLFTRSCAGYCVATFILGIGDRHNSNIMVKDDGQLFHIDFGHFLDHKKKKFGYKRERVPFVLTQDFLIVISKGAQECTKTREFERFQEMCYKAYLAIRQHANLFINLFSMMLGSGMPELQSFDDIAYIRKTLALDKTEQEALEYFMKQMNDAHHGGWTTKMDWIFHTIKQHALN
T1 sequence (P27986 whole entry partner): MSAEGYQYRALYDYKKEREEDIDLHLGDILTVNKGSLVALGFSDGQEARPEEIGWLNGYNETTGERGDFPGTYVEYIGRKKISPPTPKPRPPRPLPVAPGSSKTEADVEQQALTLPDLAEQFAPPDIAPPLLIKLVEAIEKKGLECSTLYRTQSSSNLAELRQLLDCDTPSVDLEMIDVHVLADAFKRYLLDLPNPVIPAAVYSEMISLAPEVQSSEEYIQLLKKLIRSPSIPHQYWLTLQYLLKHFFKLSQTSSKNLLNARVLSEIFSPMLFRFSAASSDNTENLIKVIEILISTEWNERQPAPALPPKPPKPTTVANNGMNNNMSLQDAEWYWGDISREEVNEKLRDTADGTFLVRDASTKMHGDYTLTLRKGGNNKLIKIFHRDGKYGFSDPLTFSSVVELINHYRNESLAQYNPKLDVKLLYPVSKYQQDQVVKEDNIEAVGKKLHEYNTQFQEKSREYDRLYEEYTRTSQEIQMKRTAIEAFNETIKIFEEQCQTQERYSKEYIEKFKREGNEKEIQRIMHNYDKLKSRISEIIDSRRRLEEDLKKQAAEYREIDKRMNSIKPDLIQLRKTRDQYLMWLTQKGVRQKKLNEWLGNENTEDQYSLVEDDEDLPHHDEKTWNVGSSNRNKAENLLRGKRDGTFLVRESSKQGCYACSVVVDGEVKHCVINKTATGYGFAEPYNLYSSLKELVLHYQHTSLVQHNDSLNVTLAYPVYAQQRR
T2 sequence (P42336 whole entry): as the sequence (P42336 whole entry) above
T2 sequence (P27986 whole entry partner): as the sequence (P27986 whole entry partner) above

| SMILES | IC50 [1] [nM] | IC50 [2] [nM] |
| --- | --- | --- |
| Cc1ccccc1-c1cc(N2CCC2)ccc1S(=O)(=O)N1CCC(F)(C(=O)N[C@H](C)/C=C\S(C)(=O)=O)CC1 [Compound 116, (R,Z)-1-((5-(azetidin-1-yl)-2′-methyl-[1,1′-biphenyl]-2-yl)sulfonyl)-4-fluoro-N-(4-(methylsulfonyl)but-3-en-2-yl)piperidine-4-carboxamide] | 340 | 261 |
| C[C@H](/C=C\S(C)(=O)=O)NC(=O)C1(F)CCN(S(=O)(=O)c2ccc(N3CCCC3)cc2-c2ccccc2)CC1 [Compound 117, (R,Z)-4-fluoro-N-(4-(methylsulfonyl)but-3-en-2-yl)-1-((5-(pyrrolidin-1-yl)-[1,1′-biphenyl]-2-yl)sulfonyl)piperidine-4-carboxamide] | 830 | 810 |
| C[C@H](/C=C\S(C)(=O)=O)NC(=O)C1(F)CCN(S(=O)(=O)c2ccc(N3CCCC3)cc2-c2ccccc2Cl)CC1 [Compound 119, (R,Z)-1-((2′-chloro-5-(pyrrolidin-1-yl)-[1,1′-biphenyl]-2-yl)sulfonyl)-4-fluoro-N-(4-(methylsulfonyl)but-3-en-2-yl)piperidine-4-carboxamide] | 670 | 460 |
| C[C@H](/C=C\S(C)(=O)=O)NC(=O)C1(F)CCN(S(=O)(=O)c2ccc(N3CCOCC3)cc2-c2ccccc2Cl)CC1 [Compound 121, (R,Z)-1-((2′-chloro-5-morpholino-[1,1′-biphenyl]-2-yl)sulfonyl)-4-fluoro-N-(4-(methylsulfonyl)but-3-en-2-yl)piperidine-4-carboxamide] | 1000 | 880 |
| Cc1ccccc1-c1cc(N2CCOCC2)ccc1S(=O)(=O)N1CCC(F)(C(=O)N[C@H](C)/C=C\S(C)(=O)=O)CC1 [Compound 122, (R,Z)-4-fluoro-1-((2′-methyl-5-morpholino-[1,1′-biphenyl]-2-yl)sulfonyl)-N-(4-(methylsulfonyl)but-3-en-2-yl)piperidine-4-carboxamide] | 610 | 490 |
| C[C@H](/C=C\S(C)(=O)=O)NC(=O)C1(F)CCN(S(=O)(=O)c2ccc(N3CCCC3)cc2-c2ccc(F)cc2Cl)CC1 [Compound 123, (R,Z)-1-((2′-chloro-4′-fluoro-5-(pyrrolidin-1-yl)-[1,1′-biphenyl]-2-yl)sulfonyl)-4-fluoro-N-(4-(methylsulfonyl)but-3-en-2-yl)piperidine-4-carboxamide] | 820 | 63 |
| C[C@H](/C=C\S(C)(=O)=O)NC(=O)C1(F)CCN(S(=O)(=O)c2ccc(N3CCC3)cc2-c2ccccc2Cl)CC1 [Compound 124, (R,Z)-1-((5-(azetidin-1-yl)-2′-chloro-[1,1′-biphenyl]-2-yl)sulfonyl)-4-fluoro-N-(4-(methylsulfonyl)but-3-en-2-yl)piperidine-4-carboxamide] | 320 | 150 |
| COCc1cccc(-c2cc(Cl)ccc2S(=O)(=O)N2CCC(F)(C(=O)N[C@@H](C)/C=C\S(C)(=O)=O)CC2)c1 [Compound 126, (S,Z)-1-((5-chloro-3′-(methoxymethyl)-[1,1′-biphenyl]-2-yl)sulfonyl)-4-fluoro-N-(4-(methylsulfonyl)but-3-en-2-yl)piperidine-4-carboxamide] | 430 | 816 |
| CO/N=C/c1cccc(-c2cc(Cl)ccc2S(=O)(=O)N2CCC(F)(C(=O)N[C@@H](C)/C=C\S(C)(=O)=O)CC2)c1 [Compound 127, 1-((5-chloro-3′-((E)-(methoxyimino)methyl)-[1,1′-biphenyl]-2-yl)sulfonyl)-4-fluoro-N-((S,Z)-4-(methylsulfonyl)but-3-en-2-yl) piperidine-4-carboxamide] | 1100 | 960 |
| C[C@H](/C=C\S(C)(=O)=O)NC(=O)C1(F)CCN(S(=O)(=O)c2ccc(C3COC3)cc2-c2ccccc2Cl)CC1 [Compound 132, (R,Z)-1-((2′-chloro-5-(oxetan-3-yl)-[1,1′-biphenyl]-2-yl)sulfonyl)-4-fluoro-N-(4-(methylsulfonyl)but-3-en-2-yl)piperidine-4-carboxamide] | 524 | 468 |
| C[C@H](/C=C/C(=O)N1CC(F)(F)C1)NC(=O)C1(F)CCN(S(=O)(=O)c2ccc(Br)cc2-c2ccccc2Cl)CC1 [Compound 135, (R,E)-1-((5-bromo-2′-chloro-[1,1′-biphenyl]-2-yl)sulfonyl)-N-(5-(3,3-difluoroazetidin-1-yl)-5-oxopent-3-en-2-yl)-4-fluoropiperidine-4-carboxamide] | 87.2 | 120 |
| COc1cc(-c2ccccc2Cl)c(S(=O)(=O)N2CCC(F)(C(=O)N[C@H](C)/C=C\S(C)(=O)=O)CC2)cn1 [Compound 186, 1-[[4-(2-chlorophenyl)-6-methoxy-3-pyridyl]sulfonyl]-4-fluoro-N—[(Z,1R)-1-methyl-3-methylsulfonyl-allyl]piperidine-4-carboxamide] | 493 | 226 |
| COc1cc(-c2ccccc2C)c(S(=O)(=O)N2CCC(F)(C(=O)N[C@@H](C)/C=C\S(C)(=O)=O)CC2)cn1 [Compound 190, (S,Z)-4-fluoro-1-((6-methoxy-4-(o-tolyl)pyridin-3-yl)sulfonyl)-N-(4-(methylsulfonyl)but-3-en-2-yl)piperidine-4-carboxamide] | 110 | 61 |

The next lines start with the values.

| IC50 [1] [nM] | IC50 [2] [nM] | SMILES |
| --- | --- | --- |
| 280 | 240 | COc1cc(-c2ccccc2)c(S(=O)(=O)N2CCC(F)(C(=O)N[C@@H](C)/C=C\S(C)(=O)=O)CC2)cn1 [Compound 192, (S,Z)-4-fluoro-1-((6-methoxy-4-phenylpyridin-3-yl)sulfonyl)-N-(4-(methylsulfonyl)but-3-en-2-yl)piperidine-4-carboxamide] |
| 290 | 284 | COc1cc(-c2ccccc2C)c(S(=O)(=O)N2CCC(F)(C(=O)N[C@H](C)/C=C\S(C)(=O)=O)CC2)cn1 [Compound 193, (R,Z)-4-fluoro-1-((6-methoxy-4-(o-tolyl)pyridin-3-yl)sulfonyl)-N-(4-(methylsulfonyl)but-3-en-2-yl)piperidine-4-carboxamide] |
| 350 | 310 | COc1cccc(-c2cc(Cl)ccc2S(=O)(=O)N2CCC(C)(C(=O)N[C@@H](C)/C=C\S(C)(=O)=O)CC2)c1 [Compound 201, (S,Z)-1-((5-chloro-3′-methoxy-[1,1′-biphenyl]-2-yl)sulfonyl)-4-methyl-N-(4-(methylsulfonyl)but-3-en-2-yl)piperidine-4-carboxamide] |
| 180 | 180 | COc1cc(-c2ccccc2Cl)c(S(=O)(=O)N2CCC(F)(C(=O)N[C@H](C)/C=C\S(C)(=O)=O)CC2)cc1OC [Compound 202, (R,Z)-1-((2′-chloro-4,5-dimethoxy-[1,1′-biphenyl]-2-yl)sulfonyl)-4-fluoro-N-(4-(methylsulfonyl)but-3-en-2-yl)piperidine-4-carboxamide] |
| 980 | 1110 | COc1cccc(-c2cc(Cl)ccc2S(=O)(=O)N2CCC(C)(C(=O)N[C@H](C)/C=C\S(C)(=O)=O)CC2)c1 [Compound 203, (R,Z)-1-((5-chloro-3′-methoxy-[1,1′-biphenyl]-2-yl)sulfonyl)-4-methyl-N-(4-(methylsulfonyl)but-3-en-2-yl)piperidine-4-carboxamide] |
| 340 | 730 | C[C@H](/C=C\S(C)(=O)=O)NC(=O)C1(F)CCN(S(=O)(=O)c2ccc(Br)cc2-c2ncccc2Cl)CC1 [Compound 204, (R,Z)-1-((4-bromo-2-(3-chloropyridin-2-yl)phenyl)sulfonyl)-4-fluoro-N-(4-(methylsulfonyl)but-3-en-2-yl)piperidine-4-carboxamide] |
| 560 | 440 | C[C@H](/C=C\S(C)(=O)=O)NC(=O)C1(F)CCN(S(=O)(=O)c2ncc(Br)cc2-c2ccccc2Cl)CC1 [Compound 218, (R,Z)-1-((5-bromo-3-(2-chlorophenyl)pyridin-2-yl)sulfonyl)-4-fluoro-N-(4-(methylsulfonyl)but-3-en-2-yl)piperidine-4-carboxamide] |
| 970 | 1090 | COc1ccc(S(=O)(=O)N2CCC(F)(C(=O)N[C@@H](C)/C=C\S(C)(=O)=O)CC2)c(-c2ccccc2OC)c1 [Compound 219, (S,Z)-1-((2′,5-dimethoxy-[1,1′-biphenyl]-2-yl)sulfonyl)-4-fluoro-N-(4-(methylsulfonyl)but-3-en-2-yl)piperidine-4-carboxamide] |
| 920 | 1530 | C[C@@H](/C=C\S(C)(=O)=O)NC(=O)C1(F)CCN(S(=O)(=O)c2ccc(Cl)cc2-c2cccc(CCO)c2)CC1 [Compound 220, (S,Z)-1-((5-chloro-3′-(2-hydroxyethyl)-[1,1′-biphenyl]-2-yl)sulfonyl)-4-fluoro-N-(4-(methylsulfonyl)but-3-en-2-yl)piperidine-4-carboxamide] |
| 1100 | 970 | COc1ccc(S(=O)(=O)N2CCC(F)(C(=O)N[C@H](C)/C=C/C#N)CC2)c(-c2ccccc2Cl)c1 [Compound 229, (R,E)-1-((2′-chloro-5-methoxy-[1,1′-biphenyl]-2-yl)sulfonyl)-N-(4-cyanobut-3-en-2-yl)-4-fluoropiperidine-4-carboxamide] |
| 130 | 114 | C[C@H](/C=C\S(C)(=O)=O)NC(=O)C1(F)CCN(S(=O)(=O)c2cnc(Cl)cc2-c2ccccc2Cl)CC1 [Compound 231, (R,Z)-1-((6-chloro-4-(2-chlorophenyl)pyridin-3-yl)sulfonyl)-4-fluoro-N-(4-(methylsulfonyl)but-3-en-2-yl)piperidine-4-carboxamide] |
